Values after ≈ are worked out from the molar mass of the structure shown. Where a SMILES comes first, the peptide text is derived from it. [ ]: non-standard residue; d: D form. The star is where a group is joined. Leu(5,5,5,5',5',5'-F6) = N[C@@H](CC(C(F)(F)F)C(F)(F)F)C(=O)O; Undecanoyl = CCCCCCCCCCC(=O)*
Assays:
Escherichia coli = experiment: Antimicrobial activity against Escherichia coli; assay type: functional
Pseudomonas aeruginosa = experiment: microbe, parasite or virus in culture; assay type: functional
[1] = erythrocyte
Staphylococcus aureus = experiment: Antimicrobial activity against Staphylococcus aureus; assay type: functional
Aspergillus fumigatus = experiment: Antimicrobial activity against Aspergillus fumigatus; assay type: functional
Bacillus subtilis = experiment: Antimicrobial activity against Bacillus subtilis; assay type: functional

SMILES: CC[C@@H](C)[C@@H](NC(=O)[C@@H](C)NC(=O)[C@@H](CCCCN)NC(=O)[C@@H](CC(C)C)NC(=O)[C@@H](C)NC(=O)[C@H](NC(=O)[C@@H](Cc1cnc[nH]1)NC(=O)[C@@H](CC(C)C)NC(=O)[C@H](NC(=O)[C@H](NC(=O)[C@@H](CCCCN)NC(=O)[C@@H](CCCCN)NC(=O)[C@@H](C)NC(=O)[C@@H](CO)NC(=O)[C@@H](CCCCN)NC(=O)[C@@H](Cc1ccccc1)NC(=O)[C@H](NC(=O)[C@@H](CCCCN)NC(=O)[C@@H](CC(C)C)NC(=O)[C@@H](Cc1ccccc1)NC(=O)[C@@H](CO)NC(=O)[C@@H](CCCCN)NC(=O)[C@@H](Cc1c[nH]c2ccccc12)NC(=O)[C@@H](CCCCN)NC(C)=O)[C@H](C)O)[C@H](C)O)C(C)C)[C@H](C)O)C(=O)N[C@H](CO)C(=O)N[C@H](CO)C(N)=O
- MIC (Escherichia coli): 1.1 µM (≈ 3.29 µg/mL)
- MIC (Pseudomonas aeruginosa): 5.3 µM (≈ 15.9 µg/mL)

SMILES: CC[C@H](C)[C@H](NC(=O)[C@H](CC(C)C)NC(=O)[C@H](CCCCN)NC(=O)[C@H](CC(C)C)NC(=O)[C@H](CC(C)C)NC(=O)[C@@H](NC(=O)[C@H](Cc1cnc[nH]1)NC(=O)[C@H](CC(C)C)NC(=O)[C@@H](NC(=O)[C@@H](NC(=O)[C@H](CCCCN)NC(=O)[C@H](CCCCN)NC(=O)[C@H](CC(C)C)NC(=O)[C@H](CO)NC(=O)[C@H](CCCCN)NC(=O)[C@H](Cc1ccccc1)NC(=O)[C@@H](NC(=O)[C@H](CCCCN)NC(=O)[C@H](CC(C)C)NC(=O)[C@H](Cc1ccccc1)NC(=O)[C@H](CO)NC(=O)[C@H](Cc1c[nH]c2ccccc12)NC(=O)[C@H](CCCCN)NC(C)=O)[C@@H](C)O)[C@@H](C)O)C(C)C)[C@@H](C)O)C(=O)N[C@@H](CO)C(=O)N[C@@H](CO)C(N)=O
- MHC [1]: 1.3 µM
- MIC (Pseudomonas aeruginosa): 168 µM (≈ 502 µg/mL)

SMILES: N=C(N)NCCC[C@H](NC(=O)[C@H](Cc1c[nH]c2ccccc12)NCCCC[C@H](N[C@@H](Cc1c[nH]c2ccccc12)C(=O)N[C@@H](CCCNC(=N)N)C(=O)O)C(=O)NCCCC[C@H](NC(=O)[C@H](CCCCN[C@@H](Cc1c[nH]c2ccccc12)C(=O)N[C@@H](CCCNC(=N)N)C(=O)O)N[C@@H](Cc1c[nH]c2ccccc12)C(=O)N[C@@H](CCCNC(=N)N)C(=O)O)C(=O)NCCC(N)=O)C(=O)O
- HC50 (in vitro; red blood cells): 760 µM
- MIC (Staphylococcus aureus): 8.7 µM (≈ 16.1 µg/mL)
- MIC (Escherichia coli): 2.4 µM (≈ 4.43 µg/mL)

SMILES: CCCCCCCCCCCCCCCC(=O)N[C@@H](CCCCN)C(=O)N[C@@H](CCCCN)C(=O)N[C@@H](CCCCN)C(N)=O
- HC50 (in vitro; red blood cells): 100 µM
- MIC (Aspergillus fumigatus): 3.1 µM (≈ 1.98 µg/mL)
- MIC (Escherichia coli): 1.56 µM (≈ 0.998 µg/mL)

SMILES: N=C(N)NCCC[C@H](NC(=O)[C@H](Cc1c[nH]c2ccccc12)NC(=O)[C@H](CCCNC(=N)N)NC(=O)[C@H](Cc1c[nH]c2ccccc12)NC(=O)[C@H](CCCNC(=N)N)NC(=O)[C@H](Cc1c[nH]c2ccccc12)NC(=O)[C@H](CCCNC(=N)N)NC(=O)[C@H](Cc1c[nH]c2ccccc12)NC(=O)[C@@H](N)CCCNC(=N)N)C(=O)N[C@@H](Cc1c[nH]c2ccccc12)C(N)=O
- HC50 (in vitro; erythrocyte): 76 µM
- MIC (Staphylococcus aureus): 3.6 µM (≈ 6.22 µg/mL)
- MIC (Escherichia coli): 6.2 µM (≈ 10.7 µg/mL)

SMILES: CC[C@H](C)[C@H](NC(=O)[C@H](C)NC(=O)[C@H](CCCCN)NC(=O)[C@H](C)NC(=O)[C@H](C)NC(=O)[C@@H](NC(=O)[C@H](Cc1cnc[nH]1)NC(=O)[C@H](CC(C)C)NC(=O)[C@@H](NC(=O)[C@@H](NC(=O)[C@H](CCCCN)NC(=O)[C@H](CCCCN)NC(=O)[C@H](C)NC(=O)[C@H](CO)NC(=O)[C@H](CCCCN)NC(=O)[C@H](Cc1ccccc1)NC(=O)[C@@H](NC(=O)[C@H](CCCCN)NC(=O)[C@H](C)NC(=O)[C@H](Cc1ccccc1)NC(=O)[C@H](CO)NC(=O)[C@H](CCCCN)NC(=O)[C@H](Cc1c[nH]c2ccccc12)NC(=O)[C@H](CCCCN)NC(C)=O)[C@@H](C)O)[C@@H](C)O)C(C)C)[C@@H](C)O)C(=O)N[C@@H](CO)C(=O)N[C@@H](CO)C(N)=O (Ac-KWKSFAKTFKSAKKTVLHTAAKAISS-NH2)
- MHC [1]: 336 µM
- MIC (Pseudomonas aeruginosa): 168 µM (≈ 488 µg/mL)

SMILES: CC(C)C[C@H](NC(=O)[C@H](CC(C)C)NC(=O)[C@H](CCCNC(=N)N)NC(=O)[C@H](Cc1cnc[nH]1)NC(=O)[C@@H](NC(=O)[C@H](CCCNC(=N)N)NC(=O)CNC(=O)[C@@H](NC(=O)[C@@H]1CCCN1C(=O)[C@@H](N)Cc1ccccc1)C(C)C)C(C)C)C(=O)N[C@@H](CCCNC(=N)N)C(=O)N[C@@H](CCCCN)C(=O)O (H-FPVGRVHRLLRK-OH)
- HC50 (in vitro; red blood cells): > 270 µM
- MIC (Escherichia coli): > 173 µM
- MIC (Bacillus subtilis): > 173 µM

SMILES: CC(C)[C@H](NC(=O)[C@H](CCCNC(=N)N)NC(=O)CNC(=O)[C@@H](NC(=O)[C@@H]1CCCN1C(=O)[C@@H](N)Cc1ccccc1)C(C)C)C(=O)N[C@@H](Cc1cnc[nH]1)C(=O)N[C@@H](CCCNC(=N)N)C(=O)N[C@@H](CC(C(F)(F)F)C(F)(F)F)C(=O)N[C@@H](CC(C(F)(F)F)C(F)(F)F)C(=O)N[C@@H](CCCNC(=N)N)C(=O)N[C@@H](CCCCN)C(=O)O (H-FPVGRVHR[Leu(5,5,5,5',5',5'-F6)][Leu(5,5,5,5',5',5'-F6)]RK-OH)
- HC50 (in vitro; red blood cells): > 235 µM
- MIC (Escherichia coli): 23 µM (≈ 39 µg/mL)
- MIC (Bacillus subtilis): 5.9 µM (≈ 9.99 µg/mL)

SMILES: CC[C@H](C)[C@H](NC(=O)CN)C(=O)NCC(=O)N[C@@H](CCCCN)C(=O)N[C@@H](Cc1ccccc1)C(=O)N[C@@H](CC(C)C)C(=O)N[C@@H](Cc1cnc[nH]1)C(=O)N[C@@H](CO)C(=O)N[C@@H](C)C(=O)N[C@@H](CCCCN)C(=O)N[C@@H](CCCCN)C(=O)N[C@@H](Cc1c[nH]c2ccccc12)C(=O)NCC(=O)N[C@@H](CCCCN)C(=O)N[C@@H](C)C(=O)N[C@@H](Cc1ccccc1)C(=O)N[C@H](C(=O)NCC(=O)N[C@@H](CCC(=O)O)C(=O)N[C@H](C(=O)N[C@@H](CCSC)C(=O)N[C@@H](CC(N)=O)C(=O)N[C@@H](CO)C(N)=O)[C@@H](C)CC)C(C)C (H-GIGKFLHSAKKWGKAFVGEIMNS-NH2)
- MIC (Aspergillus fumigatus): > 50 µM

SMILES: CSCC[C@H](NC(=O)[C@@H](NC(=O)[C@H](CCCNC(=N)N)NC(=O)[C@H](Cc1ccccc1)NC(=O)[C@H](C)NC(=O)[C@H](C)NC(=O)[C@H](CCCCN)NC(=O)[C@H](CCCNC(=N)N)NC(=O)[C@H](Cc1ccccc1)NC(=O)[C@H](C)NC(=O)[C@@H]1CCCN1C(=O)[C@@H](N)CCCNC(=N)N)C(C)C)C(=O)N[C@@H](CCCNC(=N)N)C(=O)N[C@@H](C)C(=O)N[C@@H](CS)C(=O)N[C@H](C(N)=O)C(C)C (H-RPAFRKAAFRVMRACV-NH2)
- MHC [1]: > 1300 µM
- MIC (Pseudomonas aeruginosa): 4 µM (≈ 7.51 µg/mL)

SMILES: N=C(N)NCCC[C@H](NC(=O)[C@H](Cc1c[nH]c2ccccc12)NC(=O)[C@H](CCCNC(=N)N)NC(=O)[C@H](Cc1c[nH]c2ccccc12)NC(=O)[C@@H](N)CCCNC(=N)N)C(=O)N[C@@H](Cc1c[nH]c2ccccc12)C(N)=O (H-RWRWRW-NH2)
- HC50 (in vitro; erythrocyte): 210 µM
- MIC (Staphylococcus aureus): 8 µM (≈ 8.35 µg/mL)
- MIC (Escherichia coli): 16 µM (≈ 16.7 µg/mL)

SMILES: N=C(N)NCCC[C@H](NC(=O)[C@H](Cc1c[nH]c2ccccc12)NC(=O)[C@H](CCCNC(=N)N)NC(=O)[C@H](Cc1c[nH]c2ccccc12)NC(=O)[C@H](CCCNC(=N)N)NC(=O)[C@H](Cc1c[nH]c2ccccc12)NC(=O)[C@@H](N)CCCNC(=N)N)C(=O)N[C@@H](Cc1c[nH]c2ccccc12)C(N)=O (H-RWRWRWRW-NH2)
- HC50 (in vitro; erythrocyte): 100 µM
- MIC (Staphylococcus aureus): 5.1 µM (≈ 7.07 µg/mL)
- MIC (Escherichia coli): 9.6 µM (≈ 13.3 µg/mL)

SMILES: CCCCCCCCCCC(=O)NCC(=O)N[C@H](C(=O)NCC(=O)N[C@@H](CCCCN)C(=O)N[C@@H](Cc1ccccc1)C(=O)N[C@@H](CC(C)C)C(=O)N[C@@H](Cc1cnc[nH]1)C(=O)N[C@@H](CO)C(=O)N[C@@H](C)C(=O)N[C@@H](CCCCN)C(=O)N[C@@H](CCCCN)C(=O)N[C@@H](Cc1c[nH]c2ccccc12)C(=O)NCC(=O)N[C@@H](CCCCN)C(=O)N[C@@H](C)C(=O)N[C@@H](Cc1ccccc1)C(=O)N[C@H](C(=O)NCC(=O)N[C@@H](CCC(=O)O)C(=O)N[C@H](C(=O)N[C@@H](CCSC)C(=O)N[C@@H](CC(N)=O)C(=O)N[C@@H](CO)C(N)=O)[C@@H](C)CC)C(C)C)[C@@H](C)CC (Undecanoyl-GIGKFLHSAKKWGKAFVGEIMNS-NH2)
- MIC (Aspergillus fumigatus): 6.25 µM (≈ 16.7 µg/mL)

Reference: ChEMBL document CHEMBL1671744 (Antimicrob Agents Chemother, 2010)
